Data from patent US4443452A, “Dibenzodiazepinones, pharmaceutical compositions thereof and method of use thereof” (Dr. Karl Thomae GmbH, priority 1982, dated 1984).

Tests used:
[1] = molecular target: muscarinic receptors (cerebral cortex); experiment: Binding to muscarinic receptors, 3H-N-methylscopolamine displacement, cerebral cortex; set-up: species or system male Sprague-Dawley rats; settings: cerebral cortex homogenate 1:3000; 0.3 n molar 3H-N-methylscopolamine; 30° C., 45 minutes; pH 7.4; read-out: Receptor binding tests IC50, Cortex
Description: (§1) 3. STUDIES OF BINDING TO MUSCARINIC RECEPTORS: DETERMINATION OF THE IC50 VALUES
(§2) The organ donors were male Sprague-Dawley rats with a body weight of from about 180 to 220 gm each. After the heart, stomach, and cerebral cortex had been removed, the remainder of the operation was carried out in ice-cold Hepes-HCl buffer (pH 7.4; 100 m molar NaCl, 10 m molar MgCl2). The smooth muscle of the fundus of the stomach was separated from the mucous membrane of the stomach and subjected to preliminary homogenization. The whole heart was cut up with scissors. All the organs were then homogenized in a Potter apparatus.
(§3) For the binding test, the homogenized organs were diluted as follows:
(§4) The homogenized organ preparations were incubated at a specific concentration of the radioligand and with a series of concentrations of the non-radioactive test substances in an Eppendorf centrifuge tube at 30° C. The duration of incubation was 45 minutes. As substance 0.3 n molar ^3 H-N-methylscopolamine (^3 H-NMS) was used as the radioligand. After incubation had been brought to an end by centrifuging at 14000 g, the radioactivity in the pellet was determined. It represents the sum of the specific and non-specific binding of ^3 H-NMS. The proportion of non-specific binding was defined as the radioactivity which was bound in the presence of 1μ molar quinuclidinylbenzylate. Four measurements were taken in each case. The IC50 values of the non-labelled test substances were determined graphically. They represent the concentration of test substance at which the specific binding of ^3 H-NMS to the muscarinic receptors in the various organs was inhibited by 50%.

[2] = molecular target: muscarinic receptors (smooth muscle of the fundus of the stomach); experiment: Binding to muscarinic receptors, 3H-N-methylscopolamine displacement, smooth muscle of fundus of stomach; set-up: species or system male Sprague-Dawley rats; settings: smooth muscle of fundus homogenate 1:100; 0.3 n molar 3H-N-methylscopolamine; 30° C., 45 minutes; pH 7.4; read-out: Receptor binding tests IC50, Smooth Muscle Fundus of Stomach
Description: as §1, §2, §3
Smooth muscle of the fundus of the stomach: 1:100
as §4

[3] = molecular target: T1, muscarinic receptors (whole heart) (Rattus norvegicus, UniProt P10980); experiment: Binding to muscarinic receptors, 3H-N-methylscopolamine displacement, whole heart; set-up: species or system male Sprague-Dawley rats; settings: whole heart homogenate 1:250; 0.3 n molar 3H-N-methylscopolamine; 30° C., 45 minutes; pH 7.4; read-out: Receptor binding tests IC50, Heart
T1 construct: from tissue; host or cells: whole heart of male Sprague-Dawley rats, homogenate
T1 sequence (P10980 1-466): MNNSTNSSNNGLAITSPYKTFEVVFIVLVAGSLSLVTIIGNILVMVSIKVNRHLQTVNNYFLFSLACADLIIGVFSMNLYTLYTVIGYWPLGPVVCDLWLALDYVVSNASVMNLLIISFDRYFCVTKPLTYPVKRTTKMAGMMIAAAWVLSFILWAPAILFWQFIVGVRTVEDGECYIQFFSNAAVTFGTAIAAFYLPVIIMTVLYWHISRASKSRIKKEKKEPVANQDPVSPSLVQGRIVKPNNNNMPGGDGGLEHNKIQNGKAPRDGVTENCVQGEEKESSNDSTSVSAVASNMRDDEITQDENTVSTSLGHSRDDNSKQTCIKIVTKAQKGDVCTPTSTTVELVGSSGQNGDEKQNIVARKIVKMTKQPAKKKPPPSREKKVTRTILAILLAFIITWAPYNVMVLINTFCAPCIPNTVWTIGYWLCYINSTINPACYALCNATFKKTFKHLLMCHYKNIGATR
Description: as §1, §2, §3
as §4, with “It represents the sum of the specific and non-specific binding of ^3 H-NMS.” left out, “Four measurements were taken in each case.” left out, “They represent the concentration of test substance at which the specific binding of ^3 H-NMS to the muscarinic receptors in the various organs was inhibited by 50%.” left out

[4] = test system: muscarinic receptors (oxotremorine-induced lesions in the mucous membrane of the stomach); experiment: Oxotremorine test: lesions in the mucous membrane of the stomach (anti-ulcerative effect); assay type: in vivo, female albino rats (Crl:COBS-CD (SD) BR strain); settings: iv; rat, test substance i.v. 15 minutes before oxotremorine 0.62 mg/kg i.v.; neostigmine 1 mg/kg oral
Description: (§5) Oxotremorine, a specific against for muscarinic receptors produces lesions in the mucous membrane of the stomach in rats and increases their secretion of saliva. This test method was chosen so that any selective activity of an antimuscarinic substance on the stomach could be identified.
(§6) Ten female albino rats (of the Crl:COBS-CD (SD) BR strain) with a body weight of from 120 to 150 gm apiece were used in each treatment group and were kept without food for 24 hours before the start of the test but given free access to drinking water.
(§7) To determine, in preliminary tests, the muscarinic effect of oxotremorine on each of the symptons studies, a dosage/activity curve was drawn up with at least three dosages for each symptom.
(§8) When the antimuscarinic substances were tested, the dosage of oxotremorine which triggered the symptom in question in 90 to 100% of the animals in the preliminary tests was used.
Lesions in the mucous membrane of stomach: 0.62 mg/kg i.v.
(§9) Each antimuscarinic substance was administered intravenously in uniformly graduated doses 15 minutes before the oxotremorine was administered. Control groups were given corresponding quantities of the solvent and suspension agent instead of the test substance. Immediately after the oxotremorine was administered, the animals were placed in a glass case for 15 minutes and observed.
The effects on lesions of the nucous membrane of the stomach were evaluated as follows:
The lesions of the gastric mucous membrane were produced by intravenous injection of 0.62 mg/kg of oxotremorine 30 minutes after the oral administration of 1 mg/kg of neostigmine (a cholinesterase inhibitor). Sixty minutes after the administration of the neostigmine, the animals were killed, and the stomachs were removed, opened, and examined for the presence of any lesions in the mucous membrane. The protective effect of the test substances was expressed as the percentage inhibition (percentage of animals with lesions).
The ED50 and ED70 values were determined using the method of LITCHFIELD and WILCOXON (eee above).

[5] = test system: muscarinic receptors (oxotremorine-induced secretion of saliva); experiment: Oxotremorine test: inhibition of salivation; assay type: in vivo, female albino rats (Crl:COBS-CD (SD) BR strain); settings: iv, 0.25 h; rat, test substance i.v. 15 minutes before oxotremorine 0.083 mg/kg i.v.; blind test
Description: as §5, §6, §7, §8
Secretion of saliva: 0.083 mg/kg i.v.
as §9
The ED50 values were determined using the method described by LITCHFIELD and WILCOXON (J. Pharmacol. Exp. Ther. 96, 99, 1949).

Testing for mydriasis = experiment: Testing for mydriasis; set-up: species or system rats; settings: in vivo, iv; rat; pupil size observed for 10 minutes; blind test
Description: The effect of the test substances on the pupil size in rats was investigated as follows:
The substances were administered intravenously to groups of 10 animals in at least three uniformly graduated doses.

CN1CCC(OC(=O)N2c3ccccc3NC(=O)c3ccccc32)CC1 [A]
IC50 [1]: 5.5 nM
IC50 [2]: 60 nM
IC50 [3]: 42 nM
ED50 [4]: 15.5 µg/kg
ED70 [4]: 36 µg/kg
ED50 [5]: 0.064 mg/kg
ED50 at 10 min (Testing for mydriasis): 0.071 mg/kg

CN1CCC(NC(=O)N2c3ccccc3NC(=O)c3ccccc32)CC1 [B]
IC50 [1]: 13 nM
IC50 [2]: 100 nM
IC50 [3]: 75 nM
ED50 [4]: 2.5 µg/kg
ED70 [4]: 4.8 µg/kg
ED50 [5]: 0.022 mg/kg
ED50 at 10 min (Testing for mydriasis): 0.023 mg/kg

CN1CCN(NC(=O)N2c3ccccc3NC(=O)c3ccccc32)CC1 [C]
IC50 [1]: 18 nM
IC50 [2]: 90 nM
ED50 [4]: 3.6 µg/kg
ED70 [4]: 7 µg/kg
ED50 [5]: 0.032 mg/kg
ED50 at 10 min (Testing for mydriasis): 0.0825 mg/kg
